Here are results for 4 molecules from patent US20250177555A1 (priority 2022, published 2025).

For assay [1], the target named is BlaM-Vpr-GFP1-10. Nature of the assay: cell-based or functional assay.
Assay [2] relates to VSV-G gectosome uptake, 293ColorSwitch cells. In kind it is cell-based. The note with it: Cre cargo.
Assay [3] relates to CNV-G gectosome uptake, 293ColorSwitch cells. In kind it is cell-based.
For assay [4], the system named is CNV-G gectosome cell entry. In kind it is cell-based, human. The note with it: read-out: IC50, CNV-G gectosome inhibition.
Assay [5] has as its system CNV-G pseudotyped lentiviral infection. In kind it is cell-based.

In assay [1], CNV-G-EGFP (from UniProt P13180 23-530) came in with an efficiency of cargo transfer against the CNV-G-GFP11 and BlaM-GFP1-10 pair of 100 fold less.

As to `CCCCCCCCCCCCCCCCOP(=O)([O-])OCC[N+](C)(C)C` [Milterfosine], the “inhibition of VSV-G gectosome uptake” value in assay [2] was “NOT VSV-G gectosome uptake”. For the same molecule, the “inhibition of CNV-G gectosome uptake” value in assay [3] was “specifically inhibit”.

In general, IC50 refers to the concentration that inhibits the measured activity by half. Turning to `C/C1=C/C(=O)O[C@@H]2C[C@@H](CC[C@H](C)/C=C\CC1)O[C@@](O)([C@@H]1CSC(=O)N1)C2` [Latrunculin B], in assay [4], the IC50 was determined as 1.96 µM. The “effect on CNV-G pseudotyped lentiviral infection” value in assay [5] is “effect of Latrunculin B on CNV-G”.

Regarding `COc1ccc2c(c1)CC[C@@H]1[C@@H]2CC[C@]2(C)[C@@H](NCCCCCCN3C(=O)C=CC3=O)CC[C@@H]12` [U-73122], the IC50 in assay [4] amounted to 3.03 µM.
